This is an account of results in US7776851B2, “Use of neurokinin antagonists in the treatment of urinary incontinence” (Novartis AG, priority 2003, dated 2010).

The test system of one assay is conscious guinea pigs. The experiment in a line: 5-HTP-stimulated micturition (overactive urinary bladder responses) in conscious guinea pigs. Format: in vivo, guinea pig. The note with it: for decrease of micturition volume / decrease of voiding frequency: one hour prior to 5-HTP (10 mg/kg s.c.), assessed over 17 hours, mean±SEM. The protocol: In conscious guinea pigs, an experimental paradigm is applied to stimulate micturition through subcutaneous administration of 5-hydroxytryptophan (5-HTP, 10 mg/kg). The measurement of both voiding frequency and micturition volume is used to quantify the effects of the compound of formula II (Belis, et al 1996). Vehicle or the compound of formula II (1 and 3 mg/kg) are dosed orally one hour prior to the stimulation with 5-HTP.
The effects of vehicle and the compound of formula II are assessed over 17 hours in 4 to 8 animals. […] The compound of formula II attenuates the overactive bladder responses upon stimulation with 5-HTP.
The effects are statistically significant at both doses tested (p<0.05; RM ANOVA, post-hoc Tukey test). See also FIG. 1.

In assay [1] the test system is longitudinal muscle-nerve preparations from the guinea-pig urinary bladder. Nature of the assay: Substance P-stimulated detrusor contractility, organ bath. Format: cell-based. As to the method:
Detrusor contractility is tested in longitudinal muscle-nerve preparations from the guinea-pig urinary bladder (Mackenzie and Burnstock 1984). In organ bath studies, isometric contractile responses are evoked by cumulative application of substance P (0.1 nM up to 30 μM). Substance P stimulates contractions in a concentration-dependent fashion (pD2=6.68±0.23; mean±SEM; n=5 preparations).

Setting [2] is: 5-HTP 10 mg/kg subcutaneous, over 17 hours.

`N[C@@H](Cc1c[nH]c2ccc(O)cc12)C(=O)O` [S-HTP, 5-hydroxytryptophan, reference compound]: in the assay with conscious guinea pigs (setting [2]), the “increase of micturition volume as compared to control animals” value came out at 4.5 fold and the “increase of voiding frequency as compared to control animals” value is 2.7 fold.
For `CN(C(=O)c1cc(C(F)(F)F)cc(C(F)(F)F)c1)[C@@H](/C=C/C(=O)N[C@@H]1CCCCNC1=O)Cc1ccc(Cl)c(Cl)c1` [compound of formula II, (4R)-4-[N′-methyl-N′-(3,5-bistrifluoromethylbenzoyl)amino]-4-(3,4-dichlorobenzyl)-but-2-enoic acid N-[(R)-epsilon-caprolactam-3-yl]-amide], the “decrease of micturition volume” value with conscious guinea pigs (1 mg/kg p.o.) was 32.9%±4.5%; in the assay on conscious guinea pigs (3 mg/kg p.o.) it was 36.6%±6.2%. Besides, the results for the “decrease of voiding frequency” value with conscious guinea pigs (1 mg/kg p.o.) and with conscious guinea pigs (3 mg/kg p.o.) were 45.4%±7.1% and 26.2%±7.1%, respectively. In assay [1] (10 nM, 100 nM and 1000 nM vs substance P), the Schild plot slope was −0.98. In addition, the “pA2 (Schild plot analysis), inhibition of substance P-evoked contractile responses” value in assay [1] (10 nM, 100 nM and 1000 nM, competitive, substance P 0.1 nM up to 30 μM cumulative) is 7.97.
As for substance P [reference compound], the “pD2, stimulation of isometric contractions” value in assay [1] (cumulative application 0.1 nM up to 30 μM, mean±SEM, n=5 preparations) is 6.68±0.23.
